Data reported in patent publication US11214803B2, “Modulators of YAP1 expression” (Ionis Pharmaceuticals, Inc., priority 2019, dated 2022).
Strand notation (5' to 3'): a small letter for the sugar, then the base; units joined by * are phosphorothioate-linked, units joined directly phosphodiester-linked; [ ] holds rarer units or linkages, { } end groups; capitals alone tell only the bases. e = 2'-O-(2-methoxyethyl) (MOE); k = constrained ethyl (cEt); [5mC] = 5-methylcytosine; d = 2'-deoxy (DNA)

Each substance was assayed on Yap1 mRNA (assay: Antisense inhibition of human Yap1 in SNU-449 cells by modified oligonucleotides, single dose (Example 5, RTS36584)). Conditions: Table 41; SNU-449 cells, 10,000 cells per well, free uptake, 2,000 nM modified oligonucleotide, approximately 48 hours; RTS36584; normalized to RIBOGREEN; Yap1 mRNA relative to untreated control cells.
Assay type: cell-based
In short: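 SNU-449 cells (10,000/well) took up 2,000 nM oligonucleotide by free uptake for about 48 h. Yap1 mRNA was measured by qRT-PCR with primer probe set RTS36584 and normalised to RIBOGREEN total RNA. Values are % of untreated control; asterisked oligos target the amplicon region.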

Row | Substance | YAP1 (% UTC)
1 | 1198628 (TGTCTCATGCCTTATA; modified gapmer, chemistry not fully specified) [Compound 1198628] | 27
2 | 1198629 (kA*kT*dT*dG*dT*d[5mC]*dT*d[5mC]*dA*dT*dG*d[5mC]*k[5mC]*eT*kT*eA; antisense) [Compound 1198629] | 22
3 | 1198630 (kA*kA*dT*dT*dG*dT*d[5mC]*dT*d[5mC]*dA*dT*dG*k[5mC]*e[5mC]*kT*eT; antisense) [Compound 1198630] | 37
4 | 1198631 (kA*kA*dA*dT*dT*dG*dT*d[5mC]*dT*d[5mC]*dA*dT*kG*e[5mC]*k[5mC]*eT; antisense) [Compound 1198631] | 53
5 | 1198632 (kG*kA*dA*dA*dT*dT*dG*dT*d[5mC]*dT*d[5mC]*dA*kT*eG*k[5mC]*e[5mC]; antisense) [Compound 1198632] | 21
6 | 1198633 (kG*kG*dA*dA*dA*dT*dT*dG*dT*d[5mC]*dT*d[5mC]*kA*eT*kG*e[5mC]; antisense) [Compound 1198633] | 46
7 | 1198634 (kT*kG*dG*dA*dA*dA*dT*dT*dG*dT*d[5mC]*dT*k[5mC]*eA*kT*eG; antisense) [Compound 1198634] | 34
8 | 1198635 (kA*kT*dG*dG*dA*dA*dA*dT*dT*dG*dT*d[5mC]*kT*e[5mC]*kA*eT; antisense) [Compound 1198635] | 57
9 | 1198636 (kA*kT*dA*dT*dG*dG*dA*dA*dA*dT*dT*dG*kT*e[5mC]*kT*e[5mC]; antisense) [Compound 1198636] | 41
10 | 1198637 (kA*kG*dT*dA*dT*dG*dT*dG*dG*d[5mC]*dA*dA*kT*eA*kA*eT; antisense) [Compound 1198637] | 64
11 | 1198638 (kA*kG*dA*dG*dT*dA*dT*dG*dT*dG*dG*d[5mC]*kA*eA*kT*eA; antisense) [Compound 1198638] | 18
12 | 1198639 (kT*kA*dG*dA*dG*dT*dA*dT*dG*dT*dG*dG*k[5mC]*eA*kA*eT; antisense) [Compound 1198639] | 32
13 | 1198640 (kT*kT*dA*dG*dA*dG*dT*dA*dT*dG*dT*dG*kG*e[5mC]*kA*eA; antisense) [Compound 1198640] | 26
14 | 1198641 (kA*kT*dT*dA*dG*dA*dG*dT*dA*dT*dG*dT*kG*eG*k[5mC]*eA; antisense) [Compound 1198641] | 15
15 | 1198642 (kT*kA*dT*dT*dA*dG*dA*dG*dT*dA*dT*dG*kT*eG*kG*e[5mC]; antisense) [Compound 1198642] | 19
16 | 1198643 (kA*kT*dA*dT*dT*dA*dG*dA*dG*dT*dA*dT*kG*eT*kG*eG; antisense) [Compound 1198643] | 25
17 | 1198644 (kT*kA*dT*dA*dT*dT*dA*dG*dA*dG*dT*dA*kT*eG*kT*eG; antisense) [Compound 1198644] | 73
18 | 1198645 (kT*k[5mC]*dT*dA*dT*dA*dT*dT*dA*dG*dA*dG*kT*eA*kT*eG; antisense) [Compound 1198645] | 73

Row | Substance | YAP1 (% UTC)
19 | 1198651 (kT*kT*dA*d[5mC]*dA*dT*dT*dA*dG*dG*dA*dA*k[5mC]*eA*kA*eG; antisense) [Compound 1198651] | 94
20 | 1198652 (kT*kT*dT*dT*dA*d[5mC]*dA*dT*dT*dA*dG*dG*kA*eA*k[5mC]*eA; antisense) [Compound 1198652] | 68
21 | 1198653 (k[5mC]*kT*dT*dT*dT*dA*d[5mC]*dA*dT*dT*dA*dG*kG*eA*kA*e[5mC]; antisense) [Compound 1198653] | 64
22 | 1198654 (kA*k[5mC]*dT*dT*dT*dT*dA*d[5mC]*dA*dT*dT*dA*kG*eG*kA*eA; antisense) [Compound 1198654] | 91
23 | 1198655 (k[5mC]*kA*d[5mC]*dT*dT*dT*dT*dA*d[5mC]*dA*dT*dT*kA*eG*kG*eA; antisense) [Compound 1198655] | 30
24 | 1198656 (kG*k[5mC]*dA*d[5mC]*dT*dT*dT*dT*dA*d[5mC]*dA*dT*kT*eA*kG*eG; antisense) [Compound 1198656] | 11
25 | 1198657 (kA*kG*d[5mC]*dA*d[5mC]*dT*dT*dT*dT*dA*d[5mC]*dA*kT*eT*kA*eG; antisense) [Compound 1198657] | 95
26 | 1198658 (kA*kA*dG*d[5mC]*dA*d[5mC]*dT*dT*dT*dT*dA*d[5mC]*kA*eT*kT*eA; antisense) [Compound 1198658] | 62
27 | 1198659 (antisense kT*kT*dA*dA*dG*d[5mC]*dA*d[5mC]*dT*dT*dT*dT*kA*e[5mC]*kA*eT) [Compound 1198659] | 58
28 | 1198660 (antisense kG*kG*dA*dA*dG*dA*dT*d[5mC]*dT*dG*dA*dA*kA*e[5mC]*kT*e[5mC]) [Compound 1198660] | 66
29 | 1198661 (antisense kT*kT*dG*dG*dA*dA*dG*dA*dT*d[5mC]*dT*dG*kA*eA*kA*e[5mC]) [Compound 1198661] | 111
30 | 1198662 (antisense kT*kT*dT*dG*dG*dA*dA*dG*dA*dT*d[5mC]*dT*kG*eA*kA*eA) [Compound 1198662] | 83
31 | 1198663 (antisense k[5mC]*kT*dT*dT*dG*dG*dA*dA*dG*dA*dT*d[5mC]*kT*eG*kA*eA) [Compound 1198663] | 76
32 | 1198664 (antisense kG*k[5mC]*dT*dT*dT*dG*dG*dA*dA*dG*dA*dT*k[5mC]*eT*kG*eA) [Compound 1198664] | 18
33 | 1198665 (antisense kT*kG*d[5mC]*dT*dT*dT*dG*dG*dA*dA*dG*dA*kT*e[5mC]*kT*eG) [Compound 1198665] | 38
34 | 1198666 (antisense kG*kT*dG*d[5mC]*dT*dT*dT*dG*dG*dA*dA*dG*kA*eT*k[5mC]*eT) [Compound 1198666] | 44
35 | 1198667 (antisense kA*kG*dT*dG*d[5mC]*dT*dT*dT*dG*dG*dA*dA*kG*eA*kT*e[5mC]) [Compound 1198667] | 40
36 | 1198668 (antisense kA*kT*dA*dG*dT*dG*d[5mC]*dT*dT*dT*dG*dG*kA*eA*kG*eA) [Compound 1198668] | 72

Same assay, conditions: Table 42 (separate experiment); SNU-449 cells, 10,000 cells per well, free uptake, 2,000 nM modified oligonucleotide, approximately 48 hours; RTS36584; normalized to RIBOGREEN; Yap1 mRNA relative to untreated control cells

Row | Substance | YAP1 (% UTC)
37 | 1198646 (kT*kA*dT*dA*dA*d[5mC]*dT*dG*dG*dG*d[5mC]*dA*kA*eA*kT*eT) [Compound 1198646] | 80
38 | 1198647 (kG*kG*dT*dA*dT*dA*dA*d[5mC]*dT*dG*dG*dG*k[5mC]*eA*kA*eA) [Compound 1198647] | 47
39 | 1198648 (kA*kG*dG*dT*dA*dT*dA*dA*d[5mC]*dT*dG*dG*kG*e[5mC]*kA*eA) [Compound 1198648] | 43
40 | 1198649 (kG*kA*dG*dG*dT*dA*dT*dA*dA*d[5mC]*dT*dG*kG*eG*k[5mC]*eA) [Compound 1198649] | 27
41 | 1198650 (kA*kA*d[5mC]*dA*d[5mC]*dT*dG*dA*dG*dG*dT*dA*kT*eA*kA*e[5mC]) [Compound 1198650] | 88

Same assay, conditions: Table 50; Yap1 mRNA remaining as percent of untreated control (UT), SNU-449 cells, single dose

Row | Substance | YAP1 (% UT)
42 | 1198618 (antisense kA*kA*k[5mC]*dT*dT*dT*dA*dA*dA*dG*dT*dG*kT*kA*kT*eG) [Compound 1198618] | 74
43 | 1198619 (kT*kA*kA*dG*dG*dT*dT*dT*d[5mC]*d[5mC]*d[5mC]*dA*kG*kA*kT*eT) [Compound 1198619] | 53
44 | 1198620 (kA*kG*kT*dA*dA*dG*dG*dT*dT*dT*d[5mC]*d[5mC]*k[5mC]*kA*kG*eA) [Compound 1198620] | 26
45 | 1198621 (kA*kA*kG*dT*dA*dA*dG*dG*dT*dT*dT*d[5mC]*k[5mC]*k[5mC]*kA*eG; antisense) [Compound 1198621] | 80
46 | 1198622 (kT*kA*kA*dG*dT*dA*dA*dG*dG*dT*dT*dT*k[5mC]*k[5mC]*k[5mC]*eA; antisense) [Compound 1198622] | 26
47 | 1198623 (k[5mC]*kT*kA*dA*dG*dT*dA*dA*dG*dG*dT*dT*kT*k[5mC]*k[5mC]*e[5mC]; antisense) [Compound 1198623] | 9
48 | 1198624 (kA*k[5mC]*kT*dA*dA*dG*dT*dA*dA*dG*dG*dT*kT*kT*k[5mC]*e[5mC]; antisense) [Compound 1198624] | 20
49 | 1198625 (kG*kA*k[5mC]*dT*dA*dA*dG*dT*dA*dA*dG*dG*kT*kT*kT*e[5mC]; antisense) [Compound 1198625] | 64
50 | 1198626 (kA*kG*kA*d[5mC]*dT*dA*dA*dG*dT*dA*dA*dG*kG*kT*kT*eT; antisense) [Compound 1198626] | 99
51 | 1198627 (kT*kT*kA*dG*dA*d[5mC]*dT*dA*dA*dG*dT*dA*kA*kG*kG*eT; antisense) [Compound 1198627] | 39
